According to PubChem BioAssay (NCI):
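Dose response: 5 concentrations. Exposure: 48 h. Format: 96-well plates. Endpoint: linear interpolation; highest concentration if not reached. TGI is the concentration that stops growth completely.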

Columns and labels:
Experiment in all cases: growth of human tumour cells (NCI), 48 h
SNB-75 CNS = tested on: SNB-75 CNS
RPMI-8226 leukemia = tested on: RPMI-8226 leukemia
786-0 renal = tested on: 786-0 renal
SK-MEL-5 melanoma = tested on: SK-MEL-5 melanoma
ACHN renal = tested on: ACHN renal
CAKI-1 renal = tested on: CAKI-1 renal
MCF7 breast = tested on: MCF7 breast
NCI/ADR-RES ovarian = tested on: NCI/ADR-RES ovarian
HCT-116 colon = tested on: HCT-116 colon
HT29 colon = tested on: HT29 colon
MOLT-4 leukemia = tested on: MOLT-4 leukemia
UO-31 renal = tested on: UO-31 renal
OVCAR-3 ovarian = tested on: OVCAR-3 ovarian
SW-620 colon = tested on: SW-620 colon
HCT-15 colon = tested on: HCT-15 colon
HOP-62 NSCLC = tested on: HOP-62 NSCLC
IGROV1 ovarian = tested on: IGROV1 ovarian
PC-3 prostate = tested on: PC-3 prostate
SK-OV-3 ovarian = tested on: SK-OV-3 ovarian
NCI-H226 lung = tested on: NCI-H226 lung
SK-MEL-2 melanoma = tested on: SK-MEL-2 melanoma
SN12C renal = tested on: SN12C renal
NCI-H522 lung = tested on: NCI-H522 lung
UACC-62 melanoma = tested on: UACC-62 melanoma
DU-145 prostate = tested on: DU-145 prostate
MDA-N = tested on: MDA-N
OVCAR-4 ovarian = tested on: OVCAR-4 ovarian
HOP-92 NSCLC = tested on: HOP-92 NSCLC
MDA-MB-435 = tested on: MDA-MB-435
LOX IMVI melanoma = tested on: LOX IMVI melanoma
HCC-2998 colon = tested on: HCC-2998 colon
TK-10 renal = tested on: TK-10 renal
COLO 205 colon = tested on: COLO 205 colon
EKVX NSCLC = tested on: EKVX NSCLC
NCI-H23 lung = tested on: NCI-H23 lung
T-47D breast = tested on: T-47D breast
K-562 leukemia = tested on: K-562 leukemia
OVCAR-8 ovarian = tested on: OVCAR-8 ovarian
SR leukemia = tested on: SR leukemia
SF-295 CNS = tested on: SF-295 CNS
SF-539 CNS = tested on: SF-539 CNS
A549 NSCLC = tested on: A549 NSCLC
SF-268 CNS = tested on: SF-268 CNS
SNB-19 CNS = tested on: SNB-19 CNS
SK-MEL-28 melanoma = tested on: SK-MEL-28 melanoma
MALME-3M melanoma = tested on: MALME-3M melanoma
MDA-MB-231 breast = tested on: MDA-MB-231 breast
UACC-257 melanoma = tested on: UACC-257 melanoma
U251 CNS = tested on: U251 CNS
BT-549 breast = tested on: BT-549 breast
OVCAR-5 ovarian = tested on: OVCAR-5 ovarian
KM12 colon = tested on: KM12 colon
A498 renal = tested on: A498 renal
NCI-H460 lung = tested on: NCI-H460 lung
HS 578T breast = tested on: HS 578T breast
RXF 393 renal = tested on: RXF 393 renal
CCRF-CEM leukemia = tested on: CCRF-CEM leukemia
M14 melanoma = tested on: M14 melanoma

## C=C1CC(Cn2cc(C)c(=O)[nH]c2=O)(c2ccc(-c3ccccc3)cc2)OC1=O (stereo not given)
SNB-75 CNS
  TGI: 21.8 µM
RPMI-8226 leukemia
  TGI: 1.9 µM
786-0 renal
  TGI: 2.22 µM
SK-MEL-5 melanoma
  TGI: 2.56 µM
ACHN renal
  TGI: 6.65 µM
CAKI-1 renal
  TGI: 4.94 µM
MCF7 breast
  TGI: 5.87 µM
NCI/ADR-RES ovarian
  TGI: 13.8 µM
HCT-116 colon
  TGI: 2.03 µM
HT29 colon
  TGI: 2.42 µM
MOLT-4 leukemia
  TGI: 2.8 µM
UO-31 renal
  TGI: 11.5 µM
OVCAR-3 ovarian
  TGI: 1.66 µM
SW-620 colon
  TGI: 1.91 µM
HCT-15 colon
  TGI: 3.72 µM
HOP-62 NSCLC
  TGI: 29.4 µM
IGROV1 ovarian
  TGI: 3.74 µM
PC-3 prostate
  TGI: 5.31 µM
SK-OV-3 ovarian
  TGI: 17.7 µM
NCI-H226 lung
  TGI: 35.5 µM
SK-MEL-2 melanoma
  TGI: 4.19 µM
SN12C renal
  TGI: 8.26 µM
NCI-H522 lung
  TGI: 3.59 µM
UACC-62 melanoma
  TGI: 3.77 µM
DU-145 prostate
  TGI: 6.42 µM
MDA-N
  TGI: 2.75 µM
OVCAR-4 ovarian
  TGI: 6.76 µM
HOP-92 NSCLC
  TGI: 3.75 µM
MDA-MB-435
  TGI: 3.74 µM
LOX IMVI melanoma
  TGI: 3.49 µM
HCC-2998 colon
  TGI: 5.23 µM
TK-10 renal
  TGI: 2.76 µM
COLO 205 colon
  TGI: 2.89 µM
EKVX NSCLC
  TGI: 22.1 µM
NCI-H23 lung
  TGI: 3.99 µM
T-47D breast
  TGI: 5.51 µM
K-562 leukemia
  TGI: 2.3 µM
OVCAR-8 ovarian
  TGI: 4.98 µM
SR leukemia
  TGI: 12.8 µM
SF-295 CNS
  TGI: 14.2 µM
SF-539 CNS
  TGI: 8.38 µM
A549 NSCLC
  TGI: 23 µM
SF-268 CNS
  TGI: 5.62 µM
SNB-19 CNS
  TGI: 27.4 µM
SK-MEL-28 melanoma
  TGI: 3.75 µM
MALME-3M melanoma
  TGI: 6.81 µM
MDA-MB-231 breast
  TGI: 5.16 µM
UACC-257 melanoma
  TGI: 5.75 µM
U251 CNS
  TGI: 16.1 µM
BT-549 breast
  TGI: 3.08 µM
OVCAR-5 ovarian
  TGI: 23.3 µM
KM12 colon
  TGI: 7.36 µM
A498 renal
  TGI: 16.9 µM
NCI-H460 lung
  TGI: 20.8 µM
HS 578T breast
  TGI: > 21.2 µM

## Cc1c[nH]c(C(=O)O)c1-c1ccc2c(-c3ccccc3)nc3ccccc3n12
SNB-75 CNS
  TGI: 56.4 µM
786-0 renal
  TGI: > 100 µM
SK-MEL-5 melanoma
  TGI: > 100 µM
ACHN renal
  TGI: > 100 µM
CAKI-1 renal
  TGI: > 100 µM
MCF7 breast
  TGI: > 100 µM
NCI/ADR-RES ovarian
  TGI: 48.1 µM
HCT-116 colon
  TGI: > 100 µM
HT29 colon
  TGI: 70.5 µM
MOLT-4 leukemia
  TGI: 94.8 µM
UO-31 renal
  TGI: > 100 µM
OVCAR-3 ovarian
  TGI: 37.4 µM
SW-620 colon
  TGI: > 100 µM
HCT-15 colon
  TGI: 94.1 µM
HOP-62 NSCLC
  TGI: 46.4 µM
IGROV1 ovarian
  TGI: 77.8 µM
RXF 393 renal
  TGI: 55.2 µM
CCRF-CEM leukemia
  TGI: > 100 µM
PC-3 prostate
  TGI: > 100 µM
SK-OV-3 ovarian
  TGI: > 100 µM
NCI-H226 lung
  TGI: 57.8 µM
SK-MEL-2 melanoma
  TGI: 55.1 µM
SN12C renal
  TGI: > 100 µM
NCI-H522 lung
  TGI: 60.6 µM
UACC-62 melanoma
  TGI: 42.5 µM
DU-145 prostate
  TGI: > 100 µM
M14 melanoma
  TGI: > 100 µM
MDA-N
  TGI: 48.4 µM
OVCAR-4 ovarian
  TGI: > 100 µM
HOP-92 NSCLC
  TGI: > 100 µM
MDA-MB-435
  TGI: 78.1 µM
LOX IMVI melanoma
  TGI: 63 µM
HCC-2998 colon
  TGI: 56.9 µM
TK-10 renal
  TGI: > 100 µM
COLO 205 colon
  TGI: > 100 µM
EKVX NSCLC
  TGI: > 100 µM
NCI-H23 lung
  TGI: > 100 µM
T-47D breast
  TGI: > 100 µM
K-562 leukemia
  TGI: > 100 µM
OVCAR-8 ovarian
  TGI: > 100 µM
SR leukemia
  TGI: 66.2 µM
SF-295 CNS
  TGI: 71.1 µM
SF-539 CNS
  TGI: 49.3 µM
A549 NSCLC
  TGI: > 100 µM
SF-268 CNS
  TGI: > 100 µM
SK-MEL-28 melanoma
  TGI: 76.3 µM
MDA-MB-231 breast
  TGI: 95 µM
UACC-257 melanoma
  TGI: > 100 µM
U251 CNS
  TGI: > 100 µM
BT-549 breast
  TGI: > 100 µM
OVCAR-5 ovarian
  TGI: > 100 µM
KM12 colon
  TGI: 56.8 µM
A498 renal
  TGI: 28.3 µM
NCI-H460 lung
  TGI: > 100 µM
HS 578T breast
  TGI: 67.3 µM
